We go through eight compounds from PubChem BioAssay (NCI).

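A five-concentration, 48-hour dose response in 96-well plates underlies each endpoint, interpolated linearly between surrounding concentrations. Definition used: TGI = concentration required for complete inhibition of growth.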

Some test systems named below: UACC-62 melanoma; MOLT-4 leukemia; NCI-H522 lung; 786-0 renal; SF-295 CNS; IGROV1 ovarian; SK-OV-3 ovarian; HCT-15 colon; NCI-H460 lung; SW-620 colon; UO-31 renal; COLO 205 colon; KM12 colon; EKVX NSCLC; OVCAR-4 ovarian; SF-268 CNS; HL-60(TB) leukemia.
Common to all, as to experiment: NCI tumour cell line growth inhibition, 48 h

On to `CCCCN=C(NC#N)NCCCC`, for which the TGI in the experiment on UACC-62 melanoma, in the experiment on MOLT-4 leukemia, with NCI-H522 lung, in the experiment on 786-0 renal, in the experiment with SF-295 CNS and in the experiment with IGROV1 ovarian was greater than 100 µM in each case. In addition, the TGI in the experiment on SK-OV-3 ovarian was greater than 100 µM; with HCT-15 colon, greater than 100 µM; in the experiment with NCI-H460 lung it was greater than 100 µM; in the experiment with SW-620 colon it was 42 µM; in the experiment with UO-31 renal it was greater than 100 µM; in the experiment on COLO 205 colon it was 98.9 µM. The TGI in the experiment with KM12 colon, with EKVX NSCLC, in the experiment with OVCAR-4 ovarian and with SF-268 CNS was greater than 100 µM each time.

With `O=C(O)C(CO)NC(=O)n1c2ccccc2c2ccccc21` (stereo not given), the TGI with UACC-62 melanoma, with MOLT-4 leukemia, in the experiment with NCI-H522 lung, with 786-0 renal, in the experiment with SF-295 CNS and in the experiment on IGROV1 ovarian was greater than 100 µM throughout. Further, the TGI in the experiment on SK-OV-3 ovarian, in the experiment with HCT-15 colon, with NCI-H460 lung, in the experiment with HL-60(TB) leukemia, in the experiment on SW-620 colon and in the experiment on COLO 205 colon was greater than 100 µM in each case. For the same compound, the TGI with KM12 colon, with EKVX NSCLC and in the experiment with SF-268 CNS was greater than 100 µM each time.

Take `CC(C)(C)C1CCC2(CC1)c1[nH]c3ccccc3c1C1(CCC(C(C)(C)C)CC1)c1[nH]c3ccccc3c12` (stereo not given): the TGI with UACC-62 melanoma, in the experiment on MOLT-4 leukemia, in the experiment with NCI-H522 lung, with 786-0 renal, in the experiment on SF-295 CNS and in the experiment with IGROV1 ovarian was greater than 100 µM in each case. Also, the TGI in the experiment with SK-OV-3 ovarian, in the experiment on HCT-15 colon, with NCI-H460 lung, in the experiment with HL-60(TB) leukemia, in the experiment on SW-620 colon and with UO-31 renal was greater than 100 µM each time. Also, the TGI in the experiment with COLO 205 colon, in the experiment with KM12 colon, in the experiment with EKVX NSCLC, in the experiment with OVCAR-4 ovarian and in the experiment on SF-268 CNS was greater than 100 µM in each case.

For the compound `C=CCOCCCCC(C(C)=O)C(=O)OC` (stereo not given), the TGI in the experiment with UACC-62 melanoma, in the experiment with MOLT-4 leukemia, with NCI-H522 lung, with 786-0 renal, in the experiment with SF-295 CNS and with IGROV1 ovarian was greater than 100 µM in each case. Besides, the TGI with SK-OV-3 ovarian, in the experiment on HCT-15 colon, in the experiment on NCI-H460 lung, with HL-60(TB) leukemia, in the experiment on SW-620 colon and in the experiment on UO-31 renal was greater than 100 µM each time. Further, the TGI with COLO 205 colon, in the experiment on KM12 colon, in the experiment on OVCAR-4 ovarian and with SF-268 CNS was greater than 100 µM throughout.

Regarding `O=C1NC2OC(CO)C(O)C(O1)C2O` (stereo not given), the TGI in the experiment on UACC-62 melanoma, in the experiment on MOLT-4 leukemia, in the experiment with NCI-H522 lung, in the experiment with 786-0 renal, with SF-295 CNS and in the experiment with IGROV1 ovarian was greater than 100 µM each time. The TGI in the experiment on SK-OV-3 ovarian, with HCT-15 colon, in the experiment on NCI-H460 lung, with HL-60(TB) leukemia, in the experiment with SW-620 colon and in the experiment with UO-31 renal was greater than 100 µM each time. Moreover, the TGI in the experiment on COLO 205 colon, with KM12 colon, in the experiment on EKVX NSCLC, with OVCAR-4 ovarian and in the experiment with SF-268 CNS was greater than 100 µM throughout.

For `COC1(OC)CCCCC2c3cccc(OC(C)=O)c3C21OC(C)=O` (stereo not given), the TGI with UACC-62 melanoma, with MOLT-4 leukemia, in the experiment with NCI-H522 lung, with 786-0 renal, in the experiment with SF-295 CNS and in the experiment with IGROV1 ovarian was greater than 100 µM throughout. Also, the TGI in the experiment with SK-OV-3 ovarian, in the experiment with HCT-15 colon, in the experiment on HL-60(TB) leukemia, in the experiment with SW-620 colon, in the experiment on UO-31 renal and with COLO 205 colon was greater than 100 µM throughout. The TGI with KM12 colon, in the experiment with EKVX NSCLC, with OVCAR-4 ovarian and in the experiment on SF-268 CNS was greater than 100 µM in each case.

With `O=C(O)C(CS)N=c1c2ccccc2n(O)c2ccccc12` (stereo not given), the TGI in the experiment with UACC-62 melanoma, in the experiment with MOLT-4 leukemia, in the experiment on NCI-H522 lung, with 786-0 renal, with SF-295 CNS and with IGROV1 ovarian was greater than 100 µM in each case. Also, the TGI with SK-OV-3 ovarian, in the experiment with HCT-15 colon, with NCI-H460 lung, in the experiment with HL-60(TB) leukemia, with SW-620 colon and in the experiment on UO-31 renal was greater than 100 µM in each case. Also, the TGI in the experiment on COLO 205 colon, in the experiment with KM12 colon, in the experiment on EKVX NSCLC, in the experiment with OVCAR-4 ovarian and with SF-268 CNS was greater than 100 µM in each case.

On to `COC(=O)C1CC2(c3ccccc3)C(=O)c3ccccc3N2O1` (stereo not given), for which the TGI was greater than 100 µM in the experiment with UACC-62 melanoma; 75.8 µM in the experiment with MOLT-4 leukemia; 28.8 µM with NCI-H522 lung; greater than 100 µM in the experiment on 786-0 renal; greater than 100 µM in the experiment on SF-295 CNS; greater than 100 µM in the experiment with IGROV1 ovarian. For the same compound, the TGI in the experiment on SK-OV-3 ovarian is greater than 100 µM; in the experiment with HCT-15 colon it was greater than 100 µM; in the experiment with NCI-H460 lung, greater than 100 µM; in the experiment with HL-60(TB) leukemia it was 82.1 µM; in the experiment on SW-620 colon, greater than 100 µM; with COLO 205 colon it was greater than 100 µM. In addition, the TGI in the experiment with KM12 colon, in the experiment on EKVX NSCLC, in the experiment on OVCAR-4 ovarian and with SF-268 CNS was greater than 100 µM each time.
